Assay results reported in ChEMBL document CHEMBL6134853, “Design, Synthesis, and Biological Evaluation of Pyrrolo[1,2-a]quinoxalin-4(5H)-one Derivatives as Potent and Orally Available Noncovalent Bruton's Tyrosine Kinase (BTK) Inhibitors” (J Med Chem, 2025).
Calls of active or inactive are those of the source. The calls are words filed in the database; no cut-off is given here.

How the values were obtained:
[1] = tested on: U-937; test: Antiproliferative activity against human U-937 cells expressing BTK assessed as inhibition of cell proliferation incubated for 48 hrs by CCK-8 assay; assay type: functional, cell-based; details: U-937, 48 h
[2] = tested on: Ramos; test: Antiproliferative activity against human Ramos cells expressing BTK assessed as inhibition of cell proliferation incubated for 48 hrs by CCK-8 assay; assay type: functional, cell-based
[3] = Tmax in male Sprague-Dawley rat at 10 mg/kg, po measured up to 5 hrs by LC-MS/MS analysis; assay type: ADME, organism-based; details: in vivo
[4] = AUC (0 to 5 hrs) in male Sprague-Dawley rat at 10 mg/kg, po measured up to 5 hrs by LC-MS/MS analysis; assay type: ADME, organism-based; details: in vivo
[5] = AUC (0 to t) in male Sprague-Dawley rat at 10 mg/kg, po measured up to 24 hrs by LC-MS/MS analysis; assay type: ADME, organism-based; details: in vivo
[6] = biological target: Tyrosine-protein kinase BTK (Homo sapiens, UniProt Q06187); test: Inhibition of BTK (unknown origin) at 100 nM relative to control
Chain of Tyrosine-protein kinase BTK (Q06187 whole entry): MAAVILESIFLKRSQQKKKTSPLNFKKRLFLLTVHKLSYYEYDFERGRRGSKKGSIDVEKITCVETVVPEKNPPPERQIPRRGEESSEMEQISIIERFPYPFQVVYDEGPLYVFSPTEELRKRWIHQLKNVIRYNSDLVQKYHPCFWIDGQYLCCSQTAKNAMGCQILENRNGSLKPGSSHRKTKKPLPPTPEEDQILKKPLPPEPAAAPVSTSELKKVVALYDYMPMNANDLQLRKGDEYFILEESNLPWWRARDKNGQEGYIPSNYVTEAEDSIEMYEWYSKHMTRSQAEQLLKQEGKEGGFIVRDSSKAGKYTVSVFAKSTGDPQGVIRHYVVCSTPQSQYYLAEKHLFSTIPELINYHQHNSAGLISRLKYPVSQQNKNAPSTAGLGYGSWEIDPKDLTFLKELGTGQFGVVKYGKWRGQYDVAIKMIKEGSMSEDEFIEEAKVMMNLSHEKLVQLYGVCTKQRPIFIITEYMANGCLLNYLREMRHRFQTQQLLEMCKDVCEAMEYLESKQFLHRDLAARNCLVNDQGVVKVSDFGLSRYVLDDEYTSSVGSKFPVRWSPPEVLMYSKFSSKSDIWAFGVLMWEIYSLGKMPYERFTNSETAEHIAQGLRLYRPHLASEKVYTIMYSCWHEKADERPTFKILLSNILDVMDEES

[7] = biological target: T1, 1-phosphatidylinositol 4,5-bisphosphate phosphodiesterase gamma-2 (Homo sapiens) (UniProt P16885); test: Inhibition of PLCgamma2 phosphorylation at Y1217 residue in anti-IgM induced human Ramos cells preincubated with compound for 4 hrs followed by anti-IgM induction and measured after 15 mins by Western blot analysis; assay type: cell-based; details: dose <= 1.0 µM, time […]
T1 sequence (whole entry): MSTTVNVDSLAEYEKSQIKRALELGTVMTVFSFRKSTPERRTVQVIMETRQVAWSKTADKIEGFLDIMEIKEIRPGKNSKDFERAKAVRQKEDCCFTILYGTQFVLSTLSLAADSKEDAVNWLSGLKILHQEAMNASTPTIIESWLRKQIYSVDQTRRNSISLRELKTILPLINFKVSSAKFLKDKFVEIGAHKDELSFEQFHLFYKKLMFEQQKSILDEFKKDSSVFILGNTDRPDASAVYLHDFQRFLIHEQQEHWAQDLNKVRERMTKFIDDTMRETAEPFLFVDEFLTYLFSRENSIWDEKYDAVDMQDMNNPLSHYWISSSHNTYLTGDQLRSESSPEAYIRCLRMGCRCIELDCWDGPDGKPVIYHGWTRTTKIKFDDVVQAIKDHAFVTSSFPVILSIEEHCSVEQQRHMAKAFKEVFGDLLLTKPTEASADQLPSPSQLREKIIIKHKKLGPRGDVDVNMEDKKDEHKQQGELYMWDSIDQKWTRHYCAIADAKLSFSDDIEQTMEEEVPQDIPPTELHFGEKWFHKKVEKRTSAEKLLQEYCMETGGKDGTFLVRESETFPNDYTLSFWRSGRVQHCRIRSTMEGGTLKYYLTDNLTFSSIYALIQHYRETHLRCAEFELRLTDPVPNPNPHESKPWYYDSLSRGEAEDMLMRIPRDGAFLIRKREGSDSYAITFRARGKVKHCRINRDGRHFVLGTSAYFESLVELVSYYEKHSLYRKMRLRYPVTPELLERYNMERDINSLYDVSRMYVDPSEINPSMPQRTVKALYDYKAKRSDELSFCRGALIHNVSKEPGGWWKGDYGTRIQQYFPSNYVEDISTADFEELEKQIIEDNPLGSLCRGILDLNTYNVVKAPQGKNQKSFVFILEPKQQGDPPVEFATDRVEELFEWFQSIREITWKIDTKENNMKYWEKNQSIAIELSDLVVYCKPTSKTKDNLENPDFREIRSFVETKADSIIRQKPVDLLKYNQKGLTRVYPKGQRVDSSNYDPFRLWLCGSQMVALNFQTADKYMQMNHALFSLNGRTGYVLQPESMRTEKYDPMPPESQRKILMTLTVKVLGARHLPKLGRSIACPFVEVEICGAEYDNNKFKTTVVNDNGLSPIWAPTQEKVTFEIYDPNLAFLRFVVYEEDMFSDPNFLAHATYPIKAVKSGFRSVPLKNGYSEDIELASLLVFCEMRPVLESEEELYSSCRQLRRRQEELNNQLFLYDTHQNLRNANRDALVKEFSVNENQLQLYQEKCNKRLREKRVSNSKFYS

[8] = tested on: U-937; test: Antitumor activity against human U-937 cells xenografted in BALB/c mouse assessed as tumor growth inhibition at 50 mg/kg, po administered once a day for 14 days; assay type: functional; details: U-937, 336 h, time 14 day, read-out: TGI
[9] = tested on: U-937; test: Antitumor activity against human U-937 cells xenografted in po dosed BALB/c mouse assessed as tumor growth inhibition administered once a day for 14 days; assay type: functional, organism-based; details: dose 50-100 mg/kg, time 14.0 day
[10] = Toxicity in BALB/c mouse xenografted with human U-937 cells assessed as change in body weight at 50 to 100 mg/kg, po administered once a day for 14 days; assay type: organism-based; details: in vivo, 336 h, dose 50-100 mg/kg, time 14 day
[11] = tested on: U-937; test: Antitumor activity against human U-937 cells xenografted in BALB/c mouse assessed as reduction in Ki67 expression in tumor at 50 mg/kg, po administered once a day for 14 days by immunohistochemical analysis; assay type: functional, organism-based; details: time 14.0 day
[12] = Toxicity in BALB/c mouse xenografted with human U-937 cells assessed as parenchymal injury in kidney at 50 to 100 mg/kg, po administered once a day for 14 days by H and E staining based analysis; assay type: organism-based; details: in vivo, 336 h, dose 50-100 mg/kg, time 14 day
[13] = Toxicity in BALB/c mouse xenografted with human U-937 cells assessed as inflammatory infiltration in liver at 50 to 100 mg/kg, po administered once a day for 14 days by H and E staining based analysis; assay type: organism-based; details: in vivo, 336 h, dose 50-100 mg/kg, time 14 day

IC50 [1]: 7.9 µM | IC50 [2]: 8 µM | Tmax [3]: 30 min | AUC(0-t) at 5 h [4]: 116 ng·h/mL | AUC(0-t) at 24 h [5]: 161 ng·h/mL | inhibition [6]: Active | inhibition [7]: Dose-dependent-effect
Compound: CC(C)(O)c1ccc2c(c1)[nH]c(=O)c1ccc(-c3cccc(-n4c(=O)[nH]c5c(F)cccc5c4=O)c3F)n12
inhibition in vivo at 50 mg/kg [8]: 64.4% | Activity [9]: Dose-dependent-effect | Activity [10]: Non-toxic | Activity [11]: Active | Activity [12]: Non-toxic | Activity [13]: Non-toxic
